Experimental data as given in US9243278B2, “Mechanotransduction by the synergistic action of heterotypic cell interactions” (Brown University, priority 2011, dated 2016).

Key:
[1] = test system: rat hepatocyte cell line (H35); test: toroid-on-cone cell power assay, homotypic H35 toroids; type: cell-based
Method: (§1) Toroid molds suitable for side view microcopy were designed as previously described (9). Toroid molds were designed using the computer aided design (CAD) software Solid Works (Solid Works Corporation, Concord, Mass., USA). The mold was designed with 12 features to create wells. Each feature is a rounded edged (350 μm in diameter) cylinder (1.1 mm) with a cone indent in the center. The slope of the central cone was 65° and it is 650 μm in diameter. CAD files were used to produce thermowax molds with a rapid prototyping machine (3D Systems Corporation, Valencia, Calif.).
(§2) Wax molds were used to cast 13% polyacrylamide gels. Gels were removed from wax molds and transferred to six well culture plates. Each of the resulting wells is a circular trough confined by the hydrogel wall at the outer edge of the trough and by a conical peg on the inner edge of the trough. The gels were rinsed with fresh culture medium and then equilibrated overnight at 37° C. in 4 ml of DMEM supplemented with 1% penicillin/streptomycin (pen/strep). After equilibration, the medium was removed, and the gels were rinsed with fresh medium.
(§3) NHFs (passage 4-10), derived from neonatal foreskins, and H35s (passage 5-11) were grown in T-175 flasks in DMEM with 10% FBS and 1% pen/strep at 37° C. and 10% CO2. Cells were removed from flasks using a standard trypsin process. Briefly, cells were exposed to 0.05% trypsin for 10 minutes, quenched with serum containing medium, spun down at 800 rpm for 6 minutes, resuspended in a known volume of medium, and counted using a hemocytometer. Cell solution (70 μl) was added to each hydrogel. After 30 minutes, 4 ml of fresh medium was added to each of the wells. After seeding, images of the samples were taken every 2 hours for about 8 hours. Pure NHF microtissues were seeded with about 10,500, about 21,000, about 25,000 or about 35,000 cells/well. Heterotypic microtissues were seeded at ratios of about 1:1, about 2:3, about 1:4; about 1:6, about 1:10, about 1:16, and about 1:20 (NHF:H35). The seeding per well for heterotypic samples was kept constant at about 21,000 cells/well. For TGF-β1 experiments, NHFs and H35s were incubated for 48 hours in DMEM with 10% FBS, 1% penn/strep and 5 ng/ml human recombinant TGF-β1 (Invitrogen, Carlsbad, Calif., USA), passed according to standard protocol, and seeded at about 21,000 cells/well. NHFs^TGF-β1 coseeded with H35s were seeded in DMEM with 10% FBS, 1% penn/strep without additional TGF-β1.
To investigate the effect of paracrine factors, media from homotypic toroids containing about 10,500 H35s and from homotypic toroids containing about 10,500 NHFs was collected. The conditioned media was seeded about 10,500 NHFs with the media collected from the H35s and also seeded about 10,500 H35s with the media collected from the NHFs. Power was analyzed at four hours since this is the time enhanced power for heterotypic toroids which contained about 10,500 H35s and about 10,500 NHFs (1:1 samples).
Convential view fluorescent and phase images were captured using Carl Zeiss Axio Observer Z1 with an AxioCam Mrm camera (Carl Zeiss MicroImaging, Thornwood, N.Y., USA). To capture side view images, a Mitutoyo FS-110 microscope was modified to lie on its back and a translational stage was added to hold samples. […]
The range of power exerted by increasing numbers of NHFs (>3 fold) in a homotypic environment by seeding the cells into non-adhesive hydrogels with toroid recesses, each with a central cone (65° slope) was measured. […]

[2] = test system: heterotypic toroids of NHFs and H35s; test: toroid-on-cone cell power assay, heterotypic NHF:H35 toroids; type: cell-based, human, rat
Method: as §1, §2, §3
Convential view fluorescent and phase images were captured using Carl Zeiss Axio Observer Z1 with an AxioCam Mrm camera (Carl Zeiss MicroImaging, Thornwood, N.Y., USA). To capture side view images, a Mitutoyo FS-110 microscope was modified to lie on its back and a translational stage was added to hold samples. Samples were imaged in bright field through the eyepiece of the microscope. ImageJ Software (NIH Rasband, W.S. USA) was used to measure the height of the toroid, the major radius, and the minor radius of the toroid.
The range of power exerted by increasing numbers of NHFs (>3 fold) in a homotypic environment by seeding the cells into non-adhesive hydrogels with toroid recesses, each with a central cone (65° slope) was measured. Cells settled and formed cell-cell adhesions that drove the toroid shaped microtissue up the cone. The power necessary to move the NHF toroid up the cone as P=ΔW/Δt was calculated, where ΔW is work performed against gravity to move a toroid of a known mass to a given height, and Δt is the time over which the work is performed (9). […] Toroid power increased linearly as cell number increased, but power per NHF (cell power) was independent of cell number, with a peak cell power of 0.22±0.02 fJ/hr (2 hrs) and an average cell power (over all time points) of 0.16±0.03 fJ/hr.
The data shown in Table 1 show heterotypic toroids have enhanced power. […]

[3] = H35^TGF-β1 homotypic toroid, 24 hours

Q: transforming growth factor-β1 [TGF-β1] was tested. Which Toroid Power [1, 3] did it give?
A: 0.45 ± 0.08 pJ/h

Q: What about the cell power [1, 3] of the same substance?
A: 0.022 ± 0.004 fJ/h

Q: What about the “change in H35 power compared to untreated controls” value ([1]; homotypic H35 toroids treated with TGF-β1) of the same substance?
A: doubled

Q: What about the “Toroid Power” value ([1]; homotypic toroid 100% H35^TGF-β) of the same substance?
A: 0.45 pJ/h

Q: What about the “Enhancement in Toroid Power” value ([1]; homotypic toroid 100% H35^TGF-β versus control) of the same substance?
A: 0.19 pJ/h

Q: What about the “H35 has Enhanced Power” value ([2]; 1:1 (NHF^TGF-β:H35)) of the same substance?
A: 0.11 fJ/hr per H35

Q: What about the “NHF has Enhanced Power” value ([2]; 1:1 (NHF^TGF-β:H35)) of the same substance?
A: 0.58 fJ/hr per NHF

Q: And the “Relative Increase in NHF Cell Power” value ([2]; 1:1 (NHF^TGF-β:H35))?
A: 2.4x

Q: And the “Measured Toroid Power” value ([2]; 1:1 (NHF^TGF-β:H35), at time of peak power, NHFs pretreated 48 hours with 5 ng/ml TGF-β1)?
A: 6.05 pJ/h

Q: And the “Enhanced Toroid Power” value ([2]; 1:1 (NHF^TGF-β:H35), measured minus projected)?
A: 1.16 pJ/h

Q: And the “Projected Toroid Power” value ([2]; 1:1 (NHF^TGF-β:H35), power per TGF-β treated NHF x number of NHFs)?
A: 4.90 pJ/h

Q: And the “toroid height relative to respective control” value ([2]; 1:1 NHF^TGF-β1 mixed with untreated H35s)?
A: 1.4 times

Q: And the “Enhanced Toroid Power” value ([2]; 1:10 (NHF^TGF-β:H35))?
A: 4.41 pJ/h

Q: And the “H35 has Enhanced Power” value ([2]; 1:10 (NHF^TGF-β:H35))?
A: 0.23 fJ/hr per H35

Q: What about the “NHF has Enhanced Power” value ([2]; 1:10 (NHF^TGF-β:H35)) of the same substance?
A: 5.30 fJ/hr per NHF

Q: What about the “Projected Toroid Power” value ([2]; 1:10 (NHF^TGF-β:H35)) of the same substance?
A: 0.89 pJ/h

Q: What about the “Relative Increase in NHF Cell Power” value ([2]; 1:10 (NHF^TGF-β:H35)) of the same substance?
A: 22.1x

Q: What about the “Measured Toroid Power” value ([2]; 1:10 (NHF^TGF-β:H35), peak power, combination of 6 and 8 hours) of the same substance?
A: 5.30 pJ/h

Q: What about the “toroid height relative to respective control” value ([2]; 1:10 NHF^TGF-β1 mixed with untreated H35s) of the same substance?
A: 4.4 times

Q: And the “Enhanced Toroid Power” value ([2]; 1:20 (NHF^TGF-β:H35))?
A: 3.63 pJ/h

Q: What about the “H35 has Enhanced Power” value ([2]; 1:20 (NHF^TGF-β:H35)) of the same substance?
A: 0.18 fJ/hr per H35

Q: And the “NHF has Enhanced Power” value ([2]; 1:20 (NHF^TGF-β:H35))?
A: 4.13 fJ/hr per NHF

Q: And the “Projected Toroid Power” value ([2]; 1:20 (NHF^TGF-β:H35))?
A: 0.47 pJ/h

Q: And the “Relative Increase in NHF Cell Power” value ([2]; 1:20 (NHF^TGF-β:H35))?
A: 17.2x

Q: And the “Measured Toroid Power” value ([2]; 1:20 (NHF^TGF-β:H35), at time of peak power)?
A: 4.10 pJ/h

Q: What about the “toroid height relative to respective control” value ([2]; 1:20 NHF^TGF-β1 mixed with untreated H35s) of the same substance?
A: 6.3 times

Q: What about the “Enhancement in NHF Cell Power” value ([2]; 5%:95% (NHF^TGF-β:H35)) of the same substance?
A: 4.13 fJ/hr/NHF

Q: And the “Enhancement in Toroid Power” value ([2]; 5%:95% (NHF^TGF-β:H35))?
A: 3.63 pJ/h

Q: What about the “Fold Increase in NHF Cell Power” value ([2]; 5%:95% (NHF^TGF-β:H35)) of the same substance?
A: 17.2x

Q: And the “Toroid Power” value ([2]; 5%:95% (NHF^TGF-β:H35))?
A: 4.10 pJ/h

Q: And the “Enhancement in NHF Cell Power” value ([2]; 10%:90% (NHF^TGF-β:H35))?
A: 5.30 fJ/hr/NHF

Q: And the “Enhancement in Toroid Power” value ([2]; 10%:90% (NHF^TGF-β:H35))?
A: 4.41 pJ/h

Q: And the “Toroid Power” value ([2]; 10%:90% (NHF^TGF-β:H35))?
A: 5.30 pJ/h

Q: What about the “Fold Increase in NHF Cell Power” value ([2]; 10%:90% (NHF^TGF-β:H35), effects of TGF-β & hetero environment) of the same substance?
A: 22.1x

Q: What about the “Enhancement in NHF Cell Power” value ([2]; 50%:50% (NHF^TGF-β:H35)) of the same substance?
A: 0.58 fJ/hr/NHF

Q: What about the “Enhancement in Toroid Power” value ([2]; 50%:50% (NHF^TGF-β:H35)) of the same substance?
A: 1.16 pJ/h

Q: What about the “Fold Increase in NHF Cell Power” value ([2]; 50%:50% (NHF^TGF-β:H35)) of the same substance?
A: 2.4x

Q: And the “Toroid Power” value ([2]; 50%:50% (NHF^TGF-β:H35))?
A: 6.05 pJ/h

Q: What about the total cell power ([2]; NHF^TGF-β1, about 1:10 mix, between four and eight hours) of the same substance?
A: 5.3 ± 1.32 fJ/h

Q: What about the peak cell power ([2]; NHF^TGF-β1, about 1:20 mix) of the same substance?
A: 4.13 ± 1.22 fJ/h

Q: What about the “increase in cell power, heterotypic environment and TGF-β1” value ([2]; TGF-β1 treated NHFs with untreated H35s, enhanced power distributed to NHFs) of the same substance?
A: 22 ×

Q: What about the “increase in cell power, TGF-β1 treatment in conjunction with the heterotypic environment” value ([2]; compared to untreated NHFs in a homotypic toroid) of the same substance?
A: greater than 22 times

Q: What about the “increase in NHF cell power, TGF-β1 treatment combined with heterotypic environment” value ([2]; compared to untreated NHFs in homotypic toroid, 10% NHFs: 90% H35s) of the same substance?
A: about 22.1 fold

Q: What about the “increase of NHF^TGF-β1 cell power in the heterotypic environment” value ([2]; versus NHF^TGF-β1 in homotypic environment) of the same substance?
A: greater than 11 times
